# According to ChEMBL document CHEMBL4196079, “Molecular interaction of novel benzothiazolyl triazolium analogues with calf thymus DNA and HSA-their biological investigation as potent antimicrobial agents” (Eur J Med Chem, 2018):
# System: Pichia norvegensis
# Test: Antifungal activity against Candida mycoderma after 24 hrs by NCCLS micro broth dilution method
# Assay type: functional
# Conditions: not given
row,Compound,MIC [µg/mL]
1,CCOc1ccc2c(c1)sc1nc(-c3ccccc3)c(COCc3cn(Cc4ccccc4F)nn3)n12,32
2,CCOc1ccc2c(c1)sc1nc(-c3ccccc3)c(COCc3cn(Cc4ccccc4Cl)nn3)n12,32
3,Fc1ccccc1Cn1cc(COCc2c(-c3ccccc3)nc3sc4ccccc4n23)nn1,16
4,CCOc1ccc2c(c1)sc1nc(-c3ccccc3)c(COCc3cn(Cc4cccc(Cl)c4)nn3)n12,32

# System: Micrococcus luteus
# Test: Antibacterial activity against Micrococcus luteus ATCC 4698 after 24 hrs by micro broth dilution method
# Assay type: functional
# Conditions: ATCC 4698, 24 h
row,Compound,MIC [µg/mL]
1,CCOc1ccc2c(c1)sc1nc(-c3ccccc3)c(COCc3cn(Cc4ccccc4F)nn3)n12,128
2,CCOc1ccc2c(c1)sc1nc(-c3ccccc3)c(COCc3cn(Cc4ccccc4Cl)nn3)n12,128
3,Fc1ccccc1Cn1cc(COCc2c(-c3ccccc3)nc3sc4ccccc4n23)nn1,64
4,CCOc1ccc2c(c1)sc1nc(-c3ccccc3)c(COCc3cn(Cc4cccc(Cl)c4)nn3)n12,128

# System: Escherichia coli
# Test: Antibacterial activity against Escherichia coli DH52 after 24 hrs by NCCLS micro broth dilution method
# Assay type: functional
# Conditions: DH52, 24 h
row,Compound,MIC [µg/mL]
1,CCOc1ccc2c(c1)sc1nc(-c3ccccc3)c(COCc3cn(Cc4ccccc4F)nn3)n12,128
2,CCOc1ccc2c(c1)sc1nc(-c3ccccc3)c(COCc3cn(Cc4ccccc4Cl)nn3)n12,128
3,Fc1ccccc1Cn1cc(COCc2c(-c3ccccc3)nc3sc4ccccc4n23)nn1,128
4,CCOc1ccc2c(c1)sc1nc(-c3ccccc3)c(COCc3cn(Cc4cccc(Cl)c4)nn3)n12,64

# System: Candida albicans
# Test: Antifungal activity against Candida albicans ATCC 76615 after 24 hrs by NCCLS micro broth dilution method
# Assay type: functional
# Conditions: ATCC 76615, 24 h
row,Compound,MIC [µg/mL]
1,CCOc1ccc2c(c1)sc1nc(-c3ccccc3)c(COCc3cn(Cc4ccccc4F)nn3)n12,32
2,CCOc1ccc2c(c1)sc1nc(-c3ccccc3)c(COCc3cn(Cc4ccccc4Cl)nn3)n12,8
3,Fc1ccccc1Cn1cc(COCc2c(-c3ccccc3)nc3sc4ccccc4n23)nn1,32
4,CCOc1ccc2c(c1)sc1nc(-c3ccccc3)c(COCc3cn(Cc4cccc(Cl)c4)nn3)n12,32

# System: Bacillus subtilis
# Test: Antibacterial activity against Bacillus subtilis ATCC 21216 after 24 hrs by NCCLS micro broth dilution method
# Assay type: functional
# Conditions: ATCC 21216, 24 h
row,Compound,MIC [µg/mL]
1,CCOc1ccc2c(c1)sc1nc(-c3ccccc3)c(COCc3cn(Cc4ccccc4F)nn3)n12,256
2,CCOc1ccc2c(c1)sc1nc(-c3ccccc3)c(COCc3cn(Cc4ccccc4Cl)nn3)n12,128
3,Fc1ccccc1Cn1cc(COCc2c(-c3ccccc3)nc3sc4ccccc4n23)nn1,128
4,CCOc1ccc2c(c1)sc1nc(-c3ccccc3)c(COCc3cn(Cc4cccc(Cl)c4)nn3)n12,64

# System: Bacillus
# Test: Antibacterial activity against Bacillus proteus ATCC 13315 after 24 hrs by NCCLS micro broth dilution method
# Assay type: functional
# Conditions: ATCC 13315, 24 h
row,Compound,MIC [µg/mL]
1,CCOc1ccc2c(c1)sc1nc(-c3ccccc3)c(COCc3cn(Cc4ccccc4F)nn3)n12,64
2,CCOc1ccc2c(c1)sc1nc(-c3ccccc3)c(COCc3cn(Cc4ccccc4Cl)nn3)n12,512
3,Fc1ccccc1Cn1cc(COCc2c(-c3ccccc3)nc3sc4ccccc4n23)nn1,128
4,CCOc1ccc2c(c1)sc1nc(-c3ccccc3)c(COCc3cn(Cc4cccc(Cl)c4)nn3)n12,512

# System: Cyberlindnera jadinii
# Test: Antifungal activity against Candida utilis after 24 hrs by NCCLS micro broth dilution method
# Assay type: functional
# Conditions: Williopsis jadinii
row,Compound,MIC [µg/mL]
1,CCOc1ccc2c(c1)sc1nc(-c3ccccc3)c(COCc3cn(Cc4ccccc4F)nn3)n12,16
2,CCOc1ccc2c(c1)sc1nc(-c3ccccc3)c(COCc3cn(Cc4ccccc4Cl)nn3)n12,32
3,Fc1ccccc1Cn1cc(COCc2c(-c3ccccc3)nc3sc4ccccc4n23)nn1,16
4,CCOc1ccc2c(c1)sc1nc(-c3ccccc3)c(COCc3cn(Cc4cccc(Cl)c4)nn3)n12,32

# System: Shigella dysenteriae
# Test: Antibacterial activity against Shigella dysenteriae after 24 hrs by NCCLS micro broth dilution method
# Assay type: functional
# Conditions: not given
row,Compound,MIC [µg/mL]
1,CCOc1ccc2c(c1)sc1nc(-c3ccccc3)c(COCc3cn(Cc4ccccc4F)nn3)n12,64
2,CCOc1ccc2c(c1)sc1nc(-c3ccccc3)c(COCc3cn(Cc4ccccc4Cl)nn3)n12,128
3,Fc1ccccc1Cn1cc(COCc2c(-c3ccccc3)nc3sc4ccccc4n23)nn1,128
4,CCOc1ccc2c(c1)sc1nc(-c3ccccc3)c(COCc3cn(Cc4cccc(Cl)c4)nn3)n12,64

# System: Saccharomyces cerevisiae
# Test: Antifungal activity against Saccharomyces cerevisiae after 24 hrs by NCCLS micro broth dilution method
# Assay type: functional
# Conditions: not given
row,Compound,MIC [µg/mL]
1,CCOc1ccc2c(c1)sc1nc(-c3ccccc3)c(COCc3cn(Cc4ccccc4F)nn3)n12,64
2,CCOc1ccc2c(c1)sc1nc(-c3ccccc3)c(COCc3cn(Cc4ccccc4Cl)nn3)n12,64
3,Fc1ccccc1Cn1cc(COCc2c(-c3ccccc3)nc3sc4ccccc4n23)nn1,64
4,CCOc1ccc2c(c1)sc1nc(-c3ccccc3)c(COCc3cn(Cc4cccc(Cl)c4)nn3)n12,64

# System: Staphylococcus aureus
# Test: Antibacterial activity against methicillin-resistant Staphylococcus aureus N315 after 24 hrs by NCCLS micro broth dilution method
# Assay type: functional
# Conditions: N315, 24 h
row,Compound,MIC [µg/mL]
1,CCOc1ccc2c(c1)sc1nc(-c3ccccc3)c(COCc3cn(Cc4ccccc4F)nn3)n12,128
2,CCOc1ccc2c(c1)sc1nc(-c3ccccc3)c(COCc3cn(Cc4ccccc4Cl)nn3)n12,128
3,Fc1ccccc1Cn1cc(COCc2c(-c3ccccc3)nc3sc4ccccc4n23)nn1,32
4,CCOc1ccc2c(c1)sc1nc(-c3ccccc3)c(COCc3cn(Cc4cccc(Cl)c4)nn3)n12,128

# System: Salmonella typhi
# Test: Antibacterial activity against Salmonella typhi after 24 hrs by NCCLS micro broth dilution method
# Assay type: functional, Salmonella enterica subsp. enterica serovar Typhi
# Conditions: Salmonella enterica
row,Compound,MIC [µg/mL]
1,CCOc1ccc2c(c1)sc1nc(-c3ccccc3)c(COCc3cn(Cc4ccccc4F)nn3)n12,128
2,CCOc1ccc2c(c1)sc1nc(-c3ccccc3)c(COCc3cn(Cc4ccccc4Cl)nn3)n12,16
3,Fc1ccccc1Cn1cc(COCc2c(-c3ccccc3)nc3sc4ccccc4n23)nn1,64
4,CCOc1ccc2c(c1)sc1nc(-c3ccccc3)c(COCc3cn(Cc4cccc(Cl)c4)nn3)n12,16

# System: Aspergillus flavus
# Test: Antifungal activity against Aspergillus flavus after 24 hrs by NCCLS micro broth dilution method
# Assay type: functional
# Conditions: not given
row,Compound,MIC [µg/mL]
1,CCOc1ccc2c(c1)sc1nc(-c3ccccc3)c(COCc3cn(Cc4ccccc4F)nn3)n12,128
2,CCOc1ccc2c(c1)sc1nc(-c3ccccc3)c(COCc3cn(Cc4ccccc4Cl)nn3)n12,128
3,Fc1ccccc1Cn1cc(COCc2c(-c3ccccc3)nc3sc4ccccc4n23)nn1,128
4,CCOc1ccc2c(c1)sc1nc(-c3ccccc3)c(COCc3cn(Cc4cccc(Cl)c4)nn3)n12,128

# System: Staphylococcus aureus
# Test: Antibacterial activity against Staphylococcus aureus ATCC 25923 after 24 hrs by NCCLS micro broth dilution method
# Assay type: functional
# Conditions: ATCC 25923, 24 h
row,Compound,MIC [µg/mL]
1,CCOc1ccc2c(c1)sc1nc(-c3ccccc3)c(COCc3cn(Cc4ccccc4F)nn3)n12,128
2,CCOc1ccc2c(c1)sc1nc(-c3ccccc3)c(COCc3cn(Cc4ccccc4Cl)nn3)n12,64
3,Fc1ccccc1Cn1cc(COCc2c(-c3ccccc3)nc3sc4ccccc4n23)nn1,64
4,CCOc1ccc2c(c1)sc1nc(-c3ccccc3)c(COCc3cn(Cc4cccc(Cl)c4)nn3)n12,128

# System: Escherichia coli
# Test: Antibacterial activity against Escherichia coli JM109 after 24 hrs by NCCLS micro broth dilution method
# Assay type: functional
# Conditions: JM109, 24 h
row,Compound,MIC [µg/mL]
1,CCOc1ccc2c(c1)sc1nc(-c3ccccc3)c(COCc3cn(Cc4ccccc4F)nn3)n12,128
2,CCOc1ccc2c(c1)sc1nc(-c3ccccc3)c(COCc3cn(Cc4ccccc4Cl)nn3)n12,128
3,Fc1ccccc1Cn1cc(COCc2c(-c3ccccc3)nc3sc4ccccc4n23)nn1,128
4,CCOc1ccc2c(c1)sc1nc(-c3ccccc3)c(COCc3cn(Cc4cccc(Cl)c4)nn3)n12,128

# System: Pseudomonas aeruginosa
# Test: Antibacterial activity against Pseudomonas aeruginosa ATCC 27853 after 24 hrs by NCCLS micro broth dilution method
# Assay type: functional
# Conditions: ATCC 27853, 24 h
row,Compound,MIC [µg/mL]
1,CCOc1ccc2c(c1)sc1nc(-c3ccccc3)c(COCc3cn(Cc4ccccc4F)nn3)n12,128
2,CCOc1ccc2c(c1)sc1nc(-c3ccccc3)c(COCc3cn(Cc4ccccc4Cl)nn3)n12,64
3,Fc1ccccc1Cn1cc(COCc2c(-c3ccccc3)nc3sc4ccccc4n23)nn1,128
4,CCOc1ccc2c(c1)sc1nc(-c3ccccc3)c(COCc3cn(Cc4cccc(Cl)c4)nn3)n12,64
